How the values were obtained:
[1] = target: cytochrome bd-II oxidase subunit AppB (Escherichia coli, UniProt P26458)
[2] = target: T1, cytochrome bd-II oxidase subunit AppC (Escherichia coli, UniProt P26459); test: duroquinol:O2 oxidoreductase activity of isolated bd-II, Clark-type oxygen electrode; assay type: biochemical
T1 construct: bd-II oxidase (AppC, AppB, AppX), C-terminal His-tag on AppC; with AppB, AppX

[3] = target: T1, cytochrome bd-II oxidase subunit AppC; test: duroquinol:O2 oxidoreductase inhibition (Clark electrode); assay type: biochemical
[4] = target: cytochrome bd-II oxidase subunit AppC (Escherichia coli, UniProt P26459, D239N); test: biochemical
Chain of cytochrome bd-II oxidase subunit AppC (Escherichia coli, UniProt P26459, D239N) (P26459 whole entry, stated change not applied): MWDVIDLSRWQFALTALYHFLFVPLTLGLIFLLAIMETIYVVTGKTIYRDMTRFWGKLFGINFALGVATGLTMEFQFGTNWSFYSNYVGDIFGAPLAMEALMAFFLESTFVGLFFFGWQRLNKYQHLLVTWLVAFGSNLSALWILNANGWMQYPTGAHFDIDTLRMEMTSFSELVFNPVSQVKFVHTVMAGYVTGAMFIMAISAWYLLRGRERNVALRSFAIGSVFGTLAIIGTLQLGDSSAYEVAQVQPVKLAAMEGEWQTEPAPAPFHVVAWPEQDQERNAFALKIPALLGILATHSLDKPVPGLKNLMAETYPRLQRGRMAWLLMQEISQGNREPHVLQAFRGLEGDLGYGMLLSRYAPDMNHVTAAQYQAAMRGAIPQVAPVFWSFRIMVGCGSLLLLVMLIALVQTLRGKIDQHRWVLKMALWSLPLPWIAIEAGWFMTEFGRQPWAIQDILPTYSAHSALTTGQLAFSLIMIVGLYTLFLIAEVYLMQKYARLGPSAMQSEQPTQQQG
Chain of cytochrome bd-II oxidase subunit AppC (Escherichia coli, UniProt P26459, D239N) (P24244 whole entry, further chain): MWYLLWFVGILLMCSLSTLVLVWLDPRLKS
Chain of cytochrome bd-II oxidase subunit AppC (Escherichia coli, UniProt P26459, D239N) (P26458 whole entry, further chain): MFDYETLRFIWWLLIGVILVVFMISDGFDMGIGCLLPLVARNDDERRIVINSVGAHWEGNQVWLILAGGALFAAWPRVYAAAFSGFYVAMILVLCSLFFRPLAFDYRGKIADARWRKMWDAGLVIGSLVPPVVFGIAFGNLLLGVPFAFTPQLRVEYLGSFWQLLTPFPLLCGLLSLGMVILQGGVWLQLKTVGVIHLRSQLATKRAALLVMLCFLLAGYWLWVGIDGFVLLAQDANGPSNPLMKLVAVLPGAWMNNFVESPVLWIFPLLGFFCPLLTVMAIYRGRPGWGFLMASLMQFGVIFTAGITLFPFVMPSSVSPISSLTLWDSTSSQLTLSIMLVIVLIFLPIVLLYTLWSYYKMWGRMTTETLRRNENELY

T1 sequence (P24244 whole entry): as the sequence (P24244 whole entry, further chain) above
T1 sequence (P26458 whole entry, further chain): as the sequence (P26458 whole entry, further chain) above
T1 sequence (P26459 whole entry): as the sequence (P26459 whole entry, stated change not applied) above
Chain of cytochrome bd-II oxidase subunit AppB (P26458 whole entry): as the sequence (P26458 whole entry, further chain) above
Chain of cytochrome bd-II oxidase subunit AppB (P26459 whole entry partner): as the sequence (P26459 whole entry, stated change not applied) above
Chain of cytochrome bd-II oxidase subunit AppB (P24244 whole entry partner): as the sequence (P24244 whole entry, further chain) above

## COC1=C(OC)C(=O)C(C/C=C(\C)CC/C=C(\C)CC/C=C(\C)CC/C=C(\C)CC/C=C(\C)CC/C=C(\C)CC/C=C(\C)CCC=C(C)C)=C(C)C1=O [ubiquinone-8]
[1]
  cryo-EM structure at 3.0 Å: cleft towards the periplasmic space filled with an extended electron density that was perfectly fitted as ubiquinone-8

## CC(C)=CCC/C(C)=C/CC/C(C)=C/Cc1c(C)n(O)c2ccccc2c1=O [aurachin C]
[2]
  IC50: 7.1 nM

## CC(C)=CCC/C(C)=C/CC/C(C)=C\Cc1c(C)[nH]c2ccccc2c1=O [aurachin D]
[3]
  IC50: 11.1 nM
[4]
  IC50: 60.7 nM

From publication PMC8585947, “Structure of Escherichia coli cytochrome bd-II type oxidase with bound aurachin D” (Nature Communications, 2021)
